Measurements: patent US9133158B2, “Bicyclic dihydroisoquinoline-1-one derivatives” (Hoffmann-La Roche Inc., priority 2011, dated 2015)

Assays:
human CYP11B2 = target: T1, human CYP11B2 (Homo sapiens, UniProt P19099); experiment: G-402 cellular enzyme assay, human CYP11B2 (aldosterone release, HTRF); assay type: cell-based; settings: G-402 cells, 1 μM Deoxycorticosterone
T1 construct: expressed in transfected cells
T1 sequence (P19099 25-503): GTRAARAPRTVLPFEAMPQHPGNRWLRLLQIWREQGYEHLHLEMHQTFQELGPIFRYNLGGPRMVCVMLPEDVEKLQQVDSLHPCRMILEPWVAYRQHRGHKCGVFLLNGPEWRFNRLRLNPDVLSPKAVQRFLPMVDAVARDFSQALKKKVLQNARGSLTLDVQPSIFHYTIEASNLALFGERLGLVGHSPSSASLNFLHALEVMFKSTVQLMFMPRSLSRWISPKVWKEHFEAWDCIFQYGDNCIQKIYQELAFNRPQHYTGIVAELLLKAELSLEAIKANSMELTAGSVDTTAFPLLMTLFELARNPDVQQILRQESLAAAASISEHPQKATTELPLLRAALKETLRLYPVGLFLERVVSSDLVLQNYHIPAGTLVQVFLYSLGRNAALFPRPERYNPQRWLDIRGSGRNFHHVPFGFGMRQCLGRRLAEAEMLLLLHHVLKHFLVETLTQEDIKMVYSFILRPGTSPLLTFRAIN
How it was run: (§1)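 G-402 cells stably expressing human CYP11B1 or CYP11B2 incubated 16 h in DMEM/F12 with 2.5% charcoal-treated FCS, compound, and 1 μM 11-deoxycortisol (B1) or 1 μM deoxycorticosterone (B2). Cortisol (B1) or aldosterone (B2) in supernatant measured by HTRF; EC50 from 4-parameter MMF fit.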

human CYP11B1 = target: T2, human CYP11B1 (Homo sapiens, UniProt P15538); experiment: G-402 cellular enzyme assay, human CYP11B1 (cortisol release, HTRF); assay type: cell-based; settings: G-402 cells, 1 μM Deoxycortisol
T2 construct: expressed in transfected cells
T2 sequence (P15538 25-503): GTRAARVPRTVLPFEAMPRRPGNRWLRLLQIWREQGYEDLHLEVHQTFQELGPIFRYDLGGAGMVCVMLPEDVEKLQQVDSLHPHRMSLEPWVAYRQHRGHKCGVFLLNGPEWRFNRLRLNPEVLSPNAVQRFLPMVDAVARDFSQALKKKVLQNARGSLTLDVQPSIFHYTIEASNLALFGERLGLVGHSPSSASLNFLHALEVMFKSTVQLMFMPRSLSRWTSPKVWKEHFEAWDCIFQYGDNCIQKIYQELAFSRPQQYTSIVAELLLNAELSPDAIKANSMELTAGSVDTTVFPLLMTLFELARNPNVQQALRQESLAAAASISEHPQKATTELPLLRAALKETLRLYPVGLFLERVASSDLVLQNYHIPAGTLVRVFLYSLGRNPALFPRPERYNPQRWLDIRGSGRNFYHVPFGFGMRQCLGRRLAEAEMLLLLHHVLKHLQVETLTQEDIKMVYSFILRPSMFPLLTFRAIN
How it was run: as §1

| SMILES | EC50 (human CYP11B2) [µM] | EC50 (human CYP11B1) [µM] |
| --- | --- | --- |
| CCC(=O)N[C@@H]1CCc2c1cncc2N1C(=O)c2ccc(Cl)cc2[C@H]1C (single isomer, unassigned) [Example 376, N-[(R or S)-4-((R or S)-5-Chloro-3-methyl-1-oxo-1,3-dihydro-isoindol-2-yl)-6,7-dihydro-5H-[2]pyrindin-7-yl]-propionamide] | 0.026 | 7.96 |
| O=C(c1cncc(N2CCc3cc(Cl)ccc3C2=O)c1)N1CCCC1 [Example 42, 6-Chloro-2-[5-(pyrrolidine-1-carbonyl)-pyridin-3-yl]-3,4-dihydro-2H-isoquinolin-1-one] | 0.327 | 7.86 |
| NCc1cncc(N2CCc3cc(Cl)ccc3C2=O)c1 [Example 192, 2-(5-Aminomethyl-pyridin-3-yl)-6-chloro-3,4-dihydro-2H-isoquinolin-1-one] | 2.2 | 10.3 |
| CCS(=O)(=O)NCc1cncc(N2C(=O)c3ccc(Cl)cc3C2(C)C)c1 [Example 387, Ethanesulfonic acid [5-(6-chloro-1,1-dimethyl-3-oxo-1,3-dihydro-isoindol-2-yl)-pyridin-3-ylmethyl]-amide] | 0.0922 | 2.84 |
| O=C1c2ccc(Cl)cc2CCN1c1cncc2ccccc12 [Example 73, 6-Chloro-3,4-dihydro-[2,4′]biisoquinolinyl-1-one] | 0.0135 | 0.251 |
| CCS(=O)(=O)N1CC[C@@H](Oc2cncc(N3C(=O)c4ccc(Cl)cc4C3(C)C)c2)C1 [Example 447, 5-Chloro-2-[5-((R)-1-ethanesulfonyl-pyrrolidin-3-yloxy)-pyridin-3-yl]-3,3-dimethyl-2,3-dihydro-isoindol-1-one] | 0.0019 | 0.233 |
| Cc1cnn(Cc2cncc(N3CCc4cc(Cl)ccc4C3=O)c2)c1 [Example 187, 6-Chloro-2-[5-(4-methyl-pyrazol-1-ylmethyl)-pyridin-3-yl]-3,4-dihydro-2H-isoquinolin-1-one] | 0.137 | 2.23 |
| CCS(=O)(=O)NCc1cncc(N2C(=O)c3ccc(C#N)cc3C2(C)C)c1 [Example 389, Ethanesulfonic acid [5-(6-cyano-1,1-dimethyl-3-oxo-1,3-dihydro-isoindol-2-yl)-pyridin-3-ylmethyl]-amide] | 0.115 | 2.95 |
| COC(=O)COc1cncc(N2CCc3cc(Cl)ccc3C2=O)c1 [Example 255, [5-(6-Chloro-1-oxo-3,4-dihydro-1H-isoquinolin-2-yl)-pyridin-3-yloxy]-acetic acid methyl ester] | 2.8 | 7.61 |
| O=C1c2ccc(Cl)cc2CCN1c1cncc(OC2CC2)c1 [Example 68, 6-Chloro-2-(5-cyclopropoxy-pyridin-3-yl)-3,4-dihydro-2H-isoquinolin-1-one] | 0.0067 | 0.157 |
| O=C1c2ccc(Cl)cc2CCN1c1cncc2c1CCCC2O (centres unmarked) [Example 28, 6-Chloro-8′-hydroxy-3,4,5′,6′,7′,8′-hexahydro-[2,4′]biisoquinolinyl-1-one] | 0.104 | 0.757 |
| CCOc1ccc2c(n1)C(C)(C)N(c1cncc(OC(F)F)c1)C2=O [Example 303, 6-(5-Difluoromethoxy-pyridin-3-yl)-2-ethoxy-7,7-dimethyl-6,7-dihydro-pyrrolo[3,4-b]pyridin-5-one] | 0.0936 | 12.6 |
| CC(=O)NC1CCCc2c1cncc2N1Cc2cc(Cl)ccc2C1=O (single isomer, unassigned) [Example 322, N-[(S or R)-4-(5-Chloro-1-oxo-1,3-dihydro-isoindol-2-yl)-5,6,7,8-tetrahydro-isoquinolin-8-yl]-acetamide] | 5.14 | 39.6 |
| O=C1c2ccc(Cl)cc2CCN1c1cnccc1C(F)(F)F [Example 22, 6-Chloro-2-(4-trifluoromethyl-pyridin-3-yl)-3,4-dihydro-2H-isoquinolin-1-one] | 0.0557 | 0.517 |
| O=C1c2ccc(Cl)cc2CCN1c1cncc(C2CC2)c1 [Example 66, 6-Chloro-2-(5-cyclopropyl-pyridin-3-yl)-3,4-dihydro-2H-isoquinolin-1-one] | 0.0069 | 0.0697 |
| CCC(=O)NCc1cncc(N2C(=O)c3ccc(Cl)cc3C2(C)C)c1 [Example 397, N-[5-(6-Chloro-1,1-dimethyl-3-oxo-1,3-dihydro-isoindol-2-yl)-pyridin-3-ylmethyl]-propionamide] | 0.282 | 7.95 |

| SMILES | EC50 (human CYP11B2) [µM] | EC50 (human CYP11B1) [µM] |
| --- | --- | --- |
| CC1(C)c2cc(Cl)ccc2C(=O)N1c1cncc(OC2CC2)c1 [Example 306, 5-Chloro-2-(5-cyclopropoxy-pyridin-3-yl)-3,3-dimethyl-2,3-dihydro-isoindol-1-one] | 0.0058 | 0.114 |
| Cc1c(-c2cncc(N3CCc4cc(Cl)ccc4C3=O)c2)cnn1C [Example 423, 6-Chloro-2-[5-(1,5-dimethyl-1H-pyrazol-4-yl)-pyridin-3-yl]-3,4-dihydro-2H-isoquinolin-1-one] | 0.0637 | 1.02 |
| Cc1cccnc1C(=O)NCc1cncc(N2C(=O)c3ccc(Cl)cc3C2(C)C)c1 [Example 430, 3-Methyl-pyridine-2-carboxylic acid [5-(6-chloro-1,1-dimethyl-3-oxo-1,3-dihydro-isoindol-2-yl)-pyridin-3-ylmethyl]-amide] | 0.0069 | 0.737 |
| COC(C)(C)c1cncc(N2CCc3cc(Cl)ccc3C2=O)c1 [Example 24, 6-Chloro-2-[5-(1-methoxy-1-methyl-ethyl)-pyridin-3-yl]-3,4-dihydro-2H-isoquinolin-1-one] | 0.0056 | 0.0214 |
| CS(=O)(=O)NCc1cncc(N2C(=O)c3cc(F)ccc3C23CC3)c1 [Example 401, N-{[5-(5′-Fluoro-3′-oxospiro [cyclopropane-1,1′-isoindol]-2′(3′H)-yl)pyridin-3-yl]methyl} methane-sulfonamide] | 0.36 | 9.11 |
| Cn1cnnc1Cc1cncc(N2CCc3cc(Cl)ccc3C2=O)c1 [Example 268, 6-Chloro-2-[5-(4-methyl-4H-[1,2,4]-triazol-3-ylmethyl)-pyridin-3-yl]-3,4-dihydro-2H-isoquinolin-1-one] | 1.65 | 14.2 |
| Cc1c(-c2cncc(N3CCc4cc(Cl)ccc4C3=O)c2)ncn1C [Example 417, 6-Chloro-2-[5-(1,5-dimethyl-1H-imidazol-4-yl)-pyridin-3-yl]-3,4-dihydro-2H-isoquinolin-1-one] | 0.224 | 9.09 |
| CC1(C)c2cc(Cl)ccc2C(=O)N1c1cncc(CNC(=O)c2ncccc2Cl)c1 [Example 431, 3-Chloro-pyridine-2-carboxylic acid [5-(6-chloro-1,1-dimethyl-3-oxo-1,3-dihydro-isoindol-2-yl)-pyridin-3-ylmethyl]-amide] | 0.0444 | 0.912 |
| O=C1c2ccc(Cl)cc2CCN1c1cncc(F)c1 [Example 5, 6-Chloro-2-(5-fluoro-pyridin-3-yl)-3,4-dihydro-2H-isoquinolin-1-one] | 0.0925 | 4.27 |
| Cn1ncc(Cl)c1-c1cncc(N2CCc3cc(Cl)ccc3C2=O)c1 [Example 421, 6-Chloro-2-[5-(4-chloro-2-methyl-2H-pyrazol-3-yl)-pyridin-3-yl]-3,4-dihydro-2H-isoquinolin-1-one] | 0.0007 | 0.0324 |
| CC[C@H]1c2cc(Cl)ccc2C(=O)N1c1cncc2c1CC[C@H]2NC(C)=O (single isomer, unassigned) [Example 343] | 0.134 | 4.69 |
| O=C1c2ccc(Cl)cc2CCN1c1cncc(-c2cc(F)ccc2F)c1 [Example 235, 6-Chloro-2-[5-(2,5-difluoro-phenyl)-pyridin-3-yl]-3,4-dihydro-2H-isoquinolin-1-one] | 0.0227 | 0.221 |
| C[C@@H](O)c1cncc(N2CCc3cc(Cl)ccc3C2=O)c1 [Example 14, 6-Chloro-2-[5-((R)-1-hydroxy-ethyl)-pyridin-3-yl]-3,4-dihydro-2H-isoquinolin-1-one] | 0.055 | 1.1 |
| COc1cncc(N2CCc3nc(OC)ccc3C2=O)c1 [Example 97, 2-Methoxy-6-(5-methoxy-pyridin-3-yl)-7,8-dihydro-6H-[1,6]naphthyridin-5-one] | 0.0169 | 0.22 |
| CCC(=O)NCc1cncc(N2C(=O)c3ccc(Cl)cc3C2CC)c1 (single isomer, unassigned) [Example 399, N-[5-((S or R)-5-Chloro-3-ethyl-1-oxo-1,3-dihydro-isoindol-2-yl)-pyridin-3-ylmethyl]-propionamide] | 0.313 | 11.3 |
